Measurements taken from patent US6818780B2, “P-hydroxyphenyl propionic acid derivatives as antiproliferative agents” (Consejo Superior de Investigaciones Cientificas, priority 2000, dated 2004).

System: human peripheral blood mononuclear cells (CMSP)
Test: Test on lymphocyte proliferation: human peripheral blood mononuclear cells (3H-thymidine incorporation), with or without rhIL-2
Format: cell-based
Details: for Proliferation of human peripheral blood mononuclear cells, Con A 2 μg/ml (cpm ± DS) / Proliferation of human peripheral blood mononuclear cells, Medium (cpm ± DS) / Proliferation of human peripheral blood mononuclear cells, PHA 10 μg/ml (cpm ± DS) / Proliferation of human peripheral blood mononuclear cells, aCD3 5 μg/ml (cpm ± DS) / Proliferation of human peripheral blood mononuclear cells, aCD3 + Con A (cpm ± DS) / Proliferation of human peripheral blood mononuclear cells, aCD3 + PHA (cpm ± DS): no rhIL-2; for Proliferation of human peripheral blood mononuclear cells, Con A 2 μg/ml (cpm ± DS) / Proliferation of human peripheral blood mononuclear cells, Medium (cpm ± DS) / Proliferation of human peripheral blood mononuclear cells, PHA 10 μg/ml (cpm ± DS) / Proliferation of human peripheral blood mononuclear cells, aCD3 5 μg/ml (cpm ± DS) / Proliferation of human peripheral blood mononuclear cells, aCD3 + Con A (cpm ± DS) / Proliferation of human peripheral blood mononuclear cells, aCD3 + PHA (cpm ± DS) / Proliferation of human peripheral blood mononuclear cells in the presence of rhIL-2, Con A 2 μg/ml (cpm ± DS) / Proliferation of human peripheral blood mononuclear cells in the presence of rhIL-2, Medium (cpm ± DS) / Proliferation of human peripheral blood mononuclear cells in the presence of rhIL-2, PHA 10 μg/ml (cpm ± DS) / Proliferation of human peripheral blood mononuclear cells in the presence of rhIL-2, aCD3 5 μg/ml (cpm ± DS) / Proliferation of human peripheral blood mononuclear cells in the presence of rhIL-2, aCD3 + Con A (cpm ± DS) / Proliferation of human peripheral blood mononuclear cells in the presence of rhIL-2, aCD3 + PHA (cpm ± DS): 5 days; for Proliferation of human peripheral blood mononuclear cells in the presence of rhIL-2, Con A 2 μg/ml (cpm ± DS) / Proliferation of human peripheral blood mononuclear cells in the presence of rhIL-2, Medium (cpm ± DS) / Proliferation of human peripheral blood mononuclear cells in the presence of rhIL-2, PHA 10 μg/ml (cpm ± DS) / Proliferation of human peripheral blood mononuclear cells in the presence of rhIL-2, aCD3 5 μg/ml (cpm ± DS) / Proliferation of human peripheral blood mononuclear cells in the presence of rhIL-2, aCD3 + Con A (cpm ± DS) / Proliferation of human peripheral blood mononuclear cells in the presence of rhIL-2, aCD3 + PHA (cpm ± DS): rhIL-2 100 UI/ml
Text: Tests on Human Peripheral Blood Mononuclear Cells Material and Methods:
In order to study more deeply the effects of lactone on cell proliferation, we checked whether the effects described in the above section on cells of murine origin were specific to the cell type and the species or whether, on the other hand, these effects were xeno-independent. For this, we purified human peripheral blood mononuclear cells from healthy controls and we proceeded to study the possible effects of inhibition on the proliferative activity of peripheral blood mononuclear cells (CMSP) from humans, induced by different mitogenic agents acting alone and/or in costimulation with other mitogens and in the presence or absence of recombinant human interleukin 2 (rhIL-2).
Mitogens: Phytohaemaglutinin M (PHA) (Difco Lab., Detroit, Mich., USA), Concanavalin A (Con A, 2 μg/ml, Sigma Chemical Co., Mich., USA), Immobilised anti-CD3 (OKT3, 5 μg/ml, Ortho-mune, Orthodiagnostic System) and rhIL-2 (100 IU/ml, Hoffman-La Roche, N.J., USA).
All the reagents included in these tests were diluted in RPMI 1640 culture medium (Whitaker Bioproducts, Walkersville, USA) supplemented with 10% of decomplemented foetal calf serum (Biochrom K G, Berlin), L-glutamin (2 mM, Biochrom K G), Hepes (25 mM, Biochrom K G) and antibiotic (1% penicillin streptomycin, Difco Lab, Detroit, Mich., USA).
Also, all the mitogens were optimised in a dose response way in order to obtaining the maximum proliferative response after 5 days of culture.
Venous blood: The CMSP were obtained from venous blood extracted by antecubital venous puncture. 50 ml of blood were extracted to which were added 50 U of calcic heparin and the mixture was diluted 1/1 (vol/vol) with PSS.
Human mononucleated cells: In order to isolate the CMSP they were proceeded to be separated from the rest of the blood components by means of the formation of a density gradient on Ficoll. The cells thus obtained are resuspended in PSS and centrifuged at 400×g for 10 minutes (washing process) and then resuspended in PSS. This operation is repeated three times. In the last of them, PSS is replaced with complete medium.
General culture conditions: All cell cultures were developed under conditions of sterility in a vertical laminar flow chamber, using single-use sterile materials or materials sterilised in an autoclave or with ethylene oxide. The cultures were conserved in a stove kept at a temperature of 37° C., in an atmosphere with 5% CO2 and relative humidity of 95%. In the various experiments performed, the purified CMSP cell preparations were incubated in sterile dishes with 96 wells at concentrations of 5×10^4 cells/well (200 μl) in the presence of different concentrations of different mitogens for 5 days.
The method used for quantifying the cell proliferation was analysis of the incorporation of ^3H-thymidine (^3H-T) into DNA synthesised de novo, detecting the emission of β radiation from the dry extracts of cell cultures to which the tritiated base had been added before its finalisation and collection. The synthesis of DNA was done in triplicate on sterile dishes with 96 flat-bottom wells.
From 20 to 24 hour prior to terminating the cell culture, 1 μCi of ^3H-T was added to each well containing medium; the cultures were gathered by suction through a glass filter, using a Skatron culture collector for this.
The synthesis of DNA has been expressed in counts per minute (cpm). Each test was conducted in triplicate, with those data having a variability greater than 10% compared to the mean of the triplicate being rejected, since they could indicate a technical error or contamination in the culture. The cultures were carried out at a constant cell volume per well, as well as at a constant volume of 200 μl.
Negative Control: Cells in the Presence of Complete Culture Medium
Positive Control: Stimulation of Cells without the Presence of Lactone […]

## C=C1C(=O)OC(CCc2ccc(OC)cc2)C1C (stereo not drawn) [lactone]
Lactone 10 μg/ml
  Proliferation of human peripheral blood mononuclear cells, Con A 2 μg/ml (cpm ± DS): 48 ± 7 cpm
  Proliferation of human peripheral blood mononuclear cells, Medium (cpm ± DS): 72 ± 72 cpm
  Proliferation of human peripheral blood mononuclear cells, PHA 10 μg/ml (cpm ± DS): 71 ± 14 cpm
  Proliferation of human peripheral blood mononuclear cells, aCD3 5 μg/ml (cpm ± DS): 119 ± 7 cpm
  Proliferation of human peripheral blood mononuclear cells, aCD3 + Con A (cpm ± DS): 11 ± 1 cpm
  Proliferation of human peripheral blood mononuclear cells, aCD3 + PHA (cpm ± DS): 23 ± 7 cpm
  Proliferation of human peripheral blood mononuclear cells in the presence of rhIL-2, Con A 2 μg/ml (cpm ± DS): 611 ± 75 cpm
  Proliferation of human peripheral blood mononuclear cells in the presence of rhIL-2, Medium (cpm ± DS): 866 ± 66 cpm
  Proliferation of human peripheral blood mononuclear cells in the presence of rhIL-2, PHA 10 μg/ml (cpm ± DS): 579 ± 1033 cpm
  Proliferation of human peripheral blood mononuclear cells in the presence of rhIL-2, aCD3 5 μg/ml (cpm ± DS): 489 ± 25 cpm
  Proliferation of human peripheral blood mononuclear cells in the presence of rhIL-2, aCD3 + Con A (cpm ± DS): 164 ± 65 cpm
  Proliferation of human peripheral blood mononuclear cells in the presence of rhIL-2, aCD3 + PHA (cpm ± DS): 304 ± 35 cpm
Lactone 100 μg/ml
  Proliferation of human peripheral blood mononuclear cells, Con A 2 μg/ml (cpm ± DS): 204 ± 43 cpm
  Proliferation of human peripheral blood mononuclear cells, Medium (cpm ± DS): 104 ± 26 cpm
  Proliferation of human peripheral blood mononuclear cells, PHA 10 μg/ml (cpm ± DS): 1086 ± 308 cpm
  Proliferation of human peripheral blood mononuclear cells, aCD3 5 μg/ml (cpm ± DS): 39 ± 10 cpm
  Proliferation of human peripheral blood mononuclear cells, aCD3 + Con A (cpm ± DS): 8 ± 6 cpm
  Proliferation of human peripheral blood mononuclear cells, aCD3 + PHA (cpm ± DS): 13 ± 4 cpm
  Proliferation of human peripheral blood mononuclear cells in the presence of rhIL-2, Con A 2 μg/ml (cpm ± DS): 532 ± 109 cpm
  Proliferation of human peripheral blood mononuclear cells in the presence of rhIL-2, Medium (cpm ± DS): 918 ± 1 cpm
  Proliferation of human peripheral blood mononuclear cells in the presence of rhIL-2, PHA 10 μg/ml (cpm ± DS): 892 ± 199 cpm
  Proliferation of human peripheral blood mononuclear cells in the presence of rhIL-2, aCD3 5 μg/ml (cpm ± DS): 400 ± 44 cpm
  Proliferation of human peripheral blood mononuclear cells in the presence of rhIL-2, aCD3 + Con A (cpm ± DS): 237 ± 109 cpm
  Proliferation of human peripheral blood mononuclear cells in the presence of rhIL-2, aCD3 + PHA (cpm ± DS): 286 ± 10 cpm
Induced by Con A+rhIL-2
  Lactone concentration at which the blastogen response induced in CMSP falls by 50%: 0.27 µg/mL
Induced by Concavalin A (Con A)
  Lactone concentration at which the blastogen response induced in CMSP falls by 50%: 0.5 µg/mL
Induced by PHA+rhIL-2
  Lactone concentration at which the blastogen response induced in CMSP falls by 50%: 0.29 µg/mL
Induced by aCD3+Con A
  Lactone concentration at which the blastogen response induced in CMSP falls by 50%: 0.21 µg/mL
Induced by aCD3+PHA
  Lactone concentration at which the blastogen response induced in CMSP falls by 50%: 0.24 µg/mL
Induced by immobilised aCD3+Con A+rhIL-2
  Lactone concentration at which the blastogen response induced in CMSP falls by 50%: 0.25 µg/mL
Induced by immobilised aCD3+PHA+rhIL-2
  Lactone concentration at which the blastogen response induced in CMSP falls by 50%: 0.26 µg/mL
Induced by immobilised aCD3+rhIL-2
  Lactone concentration at which the blastogen response induced in CMSP falls by 50%: 0.24 µg/mL
Induced by immobilised anti-CD3 (aCD3)
  Lactone concentration at which the blastogen response induced in CMSP falls by 50%: 0.06 µg/mL
Induced by phytohaemaglutinin M (PHA)
  Lactone concentration at which the blastogen response induced in CMSP falls by 50%: 0.25 µg/mL
Induced by rhIL-2
  Lactone concentration at which the blastogen response induced in CMSP falls by 50%: 0.26 µg/mL
No mitogen
  Lactone concentration at which the spontaneous blastogen response of the CMSP falls by 50%: 0.66 µg/mL
